How the values were obtained:
Details in all cases: 1 mM substrate, 1 uM protein, 0.5 mM ATP, 10 mM MgCl2, 32 mM hydroxylamine, 1 mM DTT, pH 7.5, room temperature, 10 min
MakasC-A1 = MakasC-A1 (Microcystis aeruginosa, UniProt A0A1L7NR40)
MakasC-A2 = molecular target: T1, MakasC-A2 (Microcystis aeruginosa, UniProt A0A1L7NR40); assay: malachite green phosphate assay of adenylation (hydroxylamine, pyrophosphatase); type: biochemical
T1 construct: C-A2-PCP tridomain of MakasC (MakasC-CA2P); N-terminal His6 (pCold II), E. coli BLR(DE3)

MakasA-A1 = molecular target: T2, MakasA-A1 (Microcystis aeruginosa, UniProt A0A1L7NR41); assay: as above; type: biochemical
T2 construct: single adenylation domain A1 of MakasA; N-terminal His6 (pCold II), E. coli BLR(DE3)
T2 sequence (A0A1L7NR41 1-560 limits assumed): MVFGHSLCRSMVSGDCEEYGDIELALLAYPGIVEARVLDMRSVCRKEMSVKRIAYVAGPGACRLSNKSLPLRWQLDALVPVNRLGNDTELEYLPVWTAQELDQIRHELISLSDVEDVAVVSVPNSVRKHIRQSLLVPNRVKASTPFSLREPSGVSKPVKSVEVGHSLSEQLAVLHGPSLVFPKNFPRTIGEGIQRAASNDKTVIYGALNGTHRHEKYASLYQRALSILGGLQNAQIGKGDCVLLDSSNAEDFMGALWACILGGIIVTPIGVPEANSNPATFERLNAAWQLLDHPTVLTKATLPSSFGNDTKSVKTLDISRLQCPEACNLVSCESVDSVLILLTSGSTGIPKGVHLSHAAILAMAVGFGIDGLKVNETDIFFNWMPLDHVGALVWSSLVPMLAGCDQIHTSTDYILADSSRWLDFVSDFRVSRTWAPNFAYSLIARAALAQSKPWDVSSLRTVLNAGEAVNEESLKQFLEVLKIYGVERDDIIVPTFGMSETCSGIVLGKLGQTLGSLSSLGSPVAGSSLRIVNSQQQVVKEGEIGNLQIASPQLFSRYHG

MakasB-A1 = molecular target: T3, MakasB-A1 (Microcystis aeruginosa, UniProt A0A1L7NR43); assay: as above; type: biochemical
T3 construct: C-A1-PCP tridomain of MakasB (MakasB-CA1P); N-terminal His6 (pCold II), E. coli BLR(DE3)

MakasB-A2 = molecular target: T4, MakasB-A2 (Microcystis aeruginosa, UniProt A0A1L7NR43); assay: as above; type: biochemical
T4 construct: single adenylation domain A2 of MakasB; N-terminal His6-MBP fusion (NhisMBP-pET28b(+)), E. coli BLR(DE3)

SMILES: N=C(N)NCCC[C@H](N)C(=O)O [L-Arg]
- relative adenylation activity (MakasC-A1): exhibited catalytic activities selective for PP, β-Ala, L-Trp, and L-Arg, respectively

SMILES: NC(C(=O)O)C(O)c1ccccc1 (racemic) [DL-threo-3-phenylserine]
- relative adenylation activity (MakasC-A2): MakasC-A2 showed higher selectivity to DL-threo-3-phenylserine (DL-threo-PS) than L-Phe

SMILES: O=C(O)C(=O)Cc1ccccc1 [phenyl pyruvic acid]
- relative adenylation activity (MakasA-A1): exhibited catalytic activities selective for PP, β-Ala, L-Trp, and L-Arg, respectively

SMILES: NCCC(=O)O [β-Ala]
- relative adenylation activity (MakasB-A1): exhibited catalytic activities selective for PP, β-Ala, L-Trp, and L-Arg, respectively

SMILES: N[C@@H](Cc1c[nH]c2ccccc12)C(=O)O [L-Trp]
- relative adenylation activity (MakasB-A2): exhibited catalytic activities selective for PP, β-Ala, L-Trp, and L-Arg, respectively
